Reference: publication PMC12040169 (PLOS Biology, 2025)

Assay: in vitro
Conditions: human, hela cells, % viability

Structure (SMILES)	viability at 28.5 h, 10 µM [%]	viability at 28.5 h, 10 µM (bulk resorufin, single well) [%]
S=C(NCc1cccs1)NC1CC1 [CBK008520]	86.4	
CC(C)(C)c1ccc(OCc2nc(N)c3c(N)n[nH]c3n2)cc1 [CBK008565]	90.8	
C=CCOCc1cc(O)n2nc(SC)c(C(N)=O)c2n1 [CBK008592]	94.6	
COc1ccc(OC)c(S(=O)(=O)N2CCN(c3ncccn3)CC2)c1 [CBK008662]	92.7	
CC(C)(C)c1ccc(C(=O)N2CC(C(=O)O)C2)cc1 [CBK008670]	101	
NC(Cc1ccc(Cl)cc1)C(=O)N(CCc1cc(C(F)(F)F)cc(C(F)(F)F)c1)c1cccc2ccccc12 (centres unmarked) [CBK008674T]	92.5	
CCN(CC)CCOC(=O)c1oc2c3c(ccc2c1C)OCCO3 [CBK008676C]	115	
CCCCc1nnc(CC(C)C)o1 [CBK008679]	106	
CCCCn1cc(CN(C)C)c2c(C)ccnc21 [CBK008697]	102	
CCOC(=O)C1=C(N)OC2=C(C(=O)CC(C)(C)C2)C1c1cc(OCC)ccc1OCC (centres unmarked) [CBK008699]	107	
Cc1nnc(O)c2c(C)n(-c3ccc(Br)cc3)nc12 [CBK008726]	86.2	
CC1(C)O[C@@H]2O[C@@H](C(O)CNC(=O)c3ccccc3)[C@@H](O)[C@@H]2O1 (some centres unmarked) [CBK008736]	87	
Cc1ccc(C2(C(=O)N3CCCC3)CCN(S(=O)(=O)c3ccc(C)cc3)CC2)cc1 [CBK008752]	102	
COc1ccc(C2c3ccccc3C[N+]3(C)CCCN23)cc1 (centres unmarked) [CBK008769]	95.7	
Cc1cc(C)[n+](-c2nccs2)c(C)c1 [CBK008782G]	103	
Cc1cc(C)c2c(n1)oc1c(Cl)ncnc12 [CBK008822]	93	
CCOC(=O)NC(Nc1nc2ccccc2s1)(C(F)(F)F)C(F)(F)F [CBK008913]	93.6	
CN1C(=S)SC(C)(N(O)C(=O)NC2CCCCC2)C1(C)C (centres unmarked) [CBK008916]	110	
COc1ccc(NC(=O)CSc2nsc(SCC(=O)Nc3ccc(OC)cc3)n2)cc1 [CBK008918]	92.5	
CCC1(C)CC(C(N)=S)CCO1 (centres unmarked) [CBK008954]	97	
CC12CN3CC(C)(CN(C1)C3c1cccc([N+](=O)[O-])c1)C2=O (centres unmarked) [CBK009030]	88.9	
O=C(c1ccc2ccccc2c1)C12CN3CN(CN(C3)C1)C2 [CBK009031]	89.1	
CCCCOc1ccc(-c2cn(CC(N)=O)cn2)cc1 [CBK009035]	110	
Cc1onc(-c2ccccc2)c1-c1n[nH]c(=S)o1 [CBK009044]	76.7	
CN1CCCCC/C1=N/C(=S)CN1CCCC1=S [CBK009052]	96.3	

Structure (SMILES)	viability at 28.5 h, 10 µM [%]	viability at 28.5 h, 10 µM (bulk resorufin, single well) [%]
COC(=O)[C@H]1O[C@H](c2ccccc2)[C@@H]2C(=O)N(C)C(=O)[C@@H]21 [CBK009058]	87.6	
CC(C)=NNC(=O)CSc1nc(N2CCOCC2)c2ccccc2n1 [CBK009114]	85.2	
CC1=NC(O)(C(F)(F)F)C(c2ccccc2)S1 (centres unmarked) [CBK009121]	87.8	
COC(=O)CC1CCC(NC(=O)C(F)(F)F)CC1 (centres unmarked) [CBK009129]	97.4	
CCN(CC)c1nc(Cl)c(C#N)c2c1CN(C)CC2 [CBK009140]	99.2	
OCCN(CCO)c1ccccc1N(CCO)CCO [CBK009141]	85.7	
O=C1NC(CCSC2=NCN=N2)Oc2ccccc21 (centres unmarked) [CBK009148]	107	
Cn1sc(=O)c2cc(S(=O)(=O)NC3CC3)ccc21 [CBK009163]	86	
COCCCNC(=O)c1cccs1 [CBK009164]	91.8	
CC1(C)Cc2c(c(-c3ccco3)nc3n[nH]c(N)c23)CO1 [CBK009252]	84.3	
COC(=O)c1cnc(Sc2ccc(Cl)cc2)nc1C(F)(F)F [CBK009299]	95.9	
CCCCC(=O)NC(Nc1cc(C)ccn1)(C(F)(F)F)C(F)(F)F [CBK009331]	79.6	
N#Cc1c(O)nsc1Nc1ccc(Cl)cc1 [CBK009446]	94.9	
Cc1nn(Cc2nnn(CC(=O)O)n2)c(C)c1Br [CBK009457]	101	
COC(=O)c1sc(N2CCCC2)c(S(=O)(=O)C(C)C)c1N [CBK009463]	87.9	
C=C1S/C(=N\c2cc(Cl)cc(Cl)c2)NC1(CC)CC [CBK009484]	109	
CCOC(=O)C1=CC2C(=NC3=C2CCCC3)C=C1 (centres unmarked) [CBK009652]	74.6	
CCCC1C2C=CC(C2)C1/C=N/O (centres unmarked) [CBK009671]	83.4	
CCc1oc2ccc(Cl)cc2c1C(=O)CCN1CCCCC1 [CBK009675C]	99.1	
CN1CCCc2c1nc1ccc(Br)cc1c2N [CBK009692G]	58.9	
NC(=S)N/N=C/c1c[nH]nc1-c1ccccc1 [CBK009705]	96.5	
CC(C)(C)/N=C1/SCC(C)(/C=N\O)S1 (centres unmarked) [CBK009726]	98.7	
CN(C)CCOC(=O)c1ccc2[nH]c3c(c2c1)CSCC3 [CBK009731C]	95.8	
NC(=O)c1ccc(C#Cc2ccccc2)o1 [CBK009809]	94.8	
Nc1nnc(C(=O)c2cc(Br)ccc2N)s1 [CBK009811]	102	

Structure (SMILES)	viability at 28.5 h, 10 µM [%]	viability at 28.5 h, 10 µM (bulk resorufin, single well) [%]
C[N+](C)(C)C1=C([O-])c2ccccc2C1=O [CBK009824]	92.7	
Nc1nonc1-c1nc2ccccc2o1 [CBK009829]	91	
CCCCNCCOC1CCC[C@@H]1Cl (some centres unmarked) [CBK009839]	97.7	
CCN(CC)CCOC(=O)C1(c2ccccc2)CCOc2ccccc21 (centres unmarked) [CBK009850C]	95.6	
CC(=O)Nc1cc(NC(C)=O)c(O)c(C(=O)O)c1 [CBK009871]	88.6	
COc1ccccc1C(CN)C1CCCCC1 (centres unmarked) [CBK009878]	99.7	
CC1(C)CC(=O)N(C2CCCCC2)C(=O)C1C#N (centres unmarked) [CBK009894]	107	
COc1ccccc1CC(c1ccccc1)C1CN(C)CCO1 (centres unmarked) [CBK009925C]	116	
O=C(Oc1n[nH]c2ccccc12)c1ccc(Cl)cc1 [CBK009976]	100	
N#CC(c1ccc(Br)cc1)n1ccnc1 (centres unmarked) [CBK009985]	85.6	
CN(C)CCC(O)(c1ccccc1)c1cc2c(cc1Cl)CCC2 (centres unmarked) [CBK010000C]	99.5	
CCn1cnc2c1CCC(CN/C(=N/C(=O)c1ccccc1)NC)C2 (centres unmarked) [CBK010036]	103	
CCn1cnc2c1CC/C(=N\O)C2 [CBK010044]	80.6	
CC(C)NC(=S)N1CC[C@@]2(NC(N)=O)N=C(N)O[C@H]2C1 [CBK010049]	93.1	
CCN(CC)CCn1c(-c2ccccc2)c(OCCO)c2ccccc2c1=O [CBK010078]	96.9	
CCOc1ccc(N)cc1S(N)(=O)=O [CBK010112]	93.2	
CN(C)CCC1OC(=O)N(c2ccccc2)C1=O (centres unmarked) [CBK010134C]	107	
Nc1ccc2c(c1)/C(=C/c1c[nH]c3ncccc13)C(=O)N2 [CBK010155T]	103	
CC(=O)C1=C(C)N2C(=Nc3ccccc3C2(C)C)S1 [CBK010180C]	85.5	
CCCN[C@@H]1CCc2cc(CNC(=O)c3ccc(C#N)cc3)ccc2C1 [CBK010211C]	101	
CC(=O)NCC1CC(c2ccc(C3=CCN(C(C)=O)CC3)cc2)=NO1 (centres unmarked) [CBK010245]	86.8	
NC1OC(COC(=O)c2ccccc2)C(OC(=O)c2ccccc2)C1OC(=O)c1ccccc1 (centres unmarked) [CBK010282]	95.3	
NC12CC(=O)CC(CC(c3ccccc3)C1)C2 (centres unmarked) [CBK010323C]	114	
CCCCCCSc1ccc(C(=O)CCCN2CCOCC2)cc1 [CBK010344]	116	
COc1cc(C2OCCNC2C)c(OC)cc1C (centres unmarked) [CBK010347C]		90.7

Structure (SMILES)	viability at 28.5 h, 10 µM [%]	viability at 28.5 h, 10 µM (bulk resorufin, single well) [%]
COc1cccc(N2CCN(CCCOc3ccc(F)cc3)CC2)n1 [CBK010355F]	94.6	
CC1CCN(c2ccc(C(=O)CCCO)cc2)CC1 [CBK010358]	91.8	
CC(=O)NCC1CC(N2CCSCC2)=NO1 (centres unmarked) [CBK010367]	85	
CC(=O)NCC1CC(c2ccc(OC(C)=O)c(Cl)n2)=NO1 (centres unmarked) [CBK010396]	88.8	
N#Cc1cn(Cc2ccco2)c(=O)[nH]c1=O [CBK010407]	101	
COc1cc(C2=NS(=O)(=O)NC3=C2CCCC3)cc(OC)c1OC [CBK010423]	90.3	
CN(C(=O)c1ccccc1)[C@]1(C)C2CC(C[C@@H]2O)C1(C)C (some centres unmarked) [CBK010498]	102	
CN(C)[C@H]1CCCC[C@@H]1OC(=O)c1ccc(C(F)(F)F)cc1 [CBK010550F]	90.1	
C/C(=N\O)c1oc2ccccc2c(=O)c1O [CBK010642]	98.6	
C1=NC2C(COCc3ccccc3)CCC2N1c1ccccc1 (centres unmarked) [CBK010679]	107	
CCN(CC)CCNC(=O)c1cc(=O)c2ccccc2o1 [CBK010691]	114	
CCNc1cccnc1N1CCN(C(=O)CCC(=O)c2ccc(NS(C)(=O)=O)cc2)CC1 [CBK010701]	98.2	
COc1ccc2c(c1)c(C(NCc1cccc(C(F)(F)F)c1)C(N)=O)nn2Cc1ccccc1 (centres unmarked) [CBK010715]	100	
CC(C)NC(=S)NC(=O)C1CCC1 [CBK010718]	86.2	
CCc1ccc(C(=O)c2ccccc2C(=O)O)cc1 [CBK010776]	93.7	
CNc1ccc(OC(=O)c2ccco2)cc1 [CBK010779]	88.1	
Cc1c(C(=O)N2CCOCC2)sc2nc(-c3ccc(Cl)cc3)nn12 [CBK010863]	91.4	
N#CC1CCC(CNC(=O)c2sc3ccccc3c2Cl)CC1 (centres unmarked) [CBK010864]	106	
Cc1cc(NC(=O)c2cc(Cl)sc2Cl)no1 [CBK010872]	84.4	
O=C(O)CCCc1nc(-c2ccccn2)no1 [CBK010880]	94.8	
COc1ccc2c(c1)CCC1CN(C)N=C21 (centres unmarked) [CBK010890]	100	
NC(=O)c1ccsc1NC(=O)C(F)(F)F [CBK010915]	96.4	
O=C(O)CCCc1ccc2sc3ccccc3c2c1 [CBK010971]	84.8	
